pKd: −log10 of the molar value.
Molecular target: T1, rAb-FAR-1 (Aphelenchoides besseyi, UniProt R9QS34)
T1 construct: E. coli BL21(DE3), pET-32a (BamHI/XhoI), N-terminal His-tag fusion, Ni-purified; ORF 181 aa with predicted signal peptide; called full-length, primer FARf-BamHI lacks ATG at its start
Experiment: fluorescence titration
Assay type: binding

T1 sequence (R9QS34 entry or part of it): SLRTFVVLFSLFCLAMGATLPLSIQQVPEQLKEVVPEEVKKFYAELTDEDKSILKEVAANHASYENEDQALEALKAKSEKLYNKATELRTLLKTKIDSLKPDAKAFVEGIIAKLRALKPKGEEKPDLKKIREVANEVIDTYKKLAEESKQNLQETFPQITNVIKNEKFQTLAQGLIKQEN

| SMILES | pKd |
| --- | --- |
| CC1=C(/C=C/C(C)=C/C=C/C(C)=C/CO)C(C)(C)CCC1 [retinol] | 5.47 |
| CN(C)c1cccc2c(S(=O)(=O)NCCCCCCCCCCC(=O)O)cccc12 [DAUDA, 11-((5-dimethylaminonaphthalene-1-sulfonyl)amino) undecannoic acid] | 5.47 |
| CC\C=C/C=C/C=C/C=C\CCCCCCCC(=O)O [cis-parinaric acid] | 5.17 |
